The results in this text go back to paper PMC9409388 (2022).

Some results are limits rather than exact numbers.

In experiment [1] the test system is c-MYC (DNA, G4) GGGGAGGGTGGGGAGGGTGGGGAAGG
Kind of experiment: thiazole orange displacement (G4-FID). The settings on record: 100 mM KCl; 10 mM sodium cacodylate pH 7.3, 18 °C; 1 µM thiazole orange displaced, 0.5 µM DNA.

Experiment [2] shares this test system. Description: thiazole orange displacement (G4-FID). The settings on record: 100 mM KCl; 10 mM sodium cacodylate pH 7.3, 18 °C; thiazole orange displaced; from DC50, TO Kb 1.50 × 10^6.
For experiment [3], the system named is WNT1 (DNA, G4) GGGGGCCACCGGGCAGGGGGCGGGGG
Kind of experiment: thiazole orange displacement (G4-FID). The note with it: 100 mM KCl, 10 mM sodium cacodylate pH 7.3, 18 °C.

Experiment [4] has as its system DNA hairpin (DNA, hairpin) CAATCGGATCGAATTCGATCCGATTG
Description: thiazole orange displacement (G4-FID). The settings on record: 100 mM KCl, 10 mM sodium cacodylate pH 7.3, 18 °C, thiazole orange displaced; for Kb: from DC50, TO Kb 3.03 × 10^6.

In experiment [5] the test system is BCL2 (DNA, G4) AGGGGCGGGCGCGGGAGGAAGGGGGCGGGAGCGGGGC
Description: thiazole orange displacement (G4-FID). The settings on record: 100 mM KCl, 10 mM sodium cacodylate pH 7.3, 18 °C.

In experiment [6] the test system is Tel (DNA, G4) GGGTTAGGGTTAGGGTTAGGGTTA
Description: thiazole orange displacement (G4-FID). The settings on record: 100 mM KCl, 10 mM sodium cacodylate pH 7.3, 18 °C.

Experiment [7] has the same test system. Kind of experiment: thiazole orange displacement (G4-FID). The settings on record: 100 mM KCl; 10 mM sodium cacodylate pH 7.3, 18 °C; thiazole orange displaced; from DC50, TO Kb 2.62 × 10^6.
In experiment [8] the test system is c-KIT (DNA, G4) GGGAGGGCGCTGGGAGGAGGG
Description: thiazole orange displacement (G4-FID). The note with it: 100 mM KCl; 10 mM sodium cacodylate pH 7.3, 18 °C; thiazole orange displaced; from DC50, assumed TO Kb 2.5 × 10^6.

Experiment [9] relates to VEGF (VEGFA) (DNA, G4) GGGGCGGGCCGGGGGCGGGG
Kind of experiment: thiazole orange displacement (G4-FID). The note with it: 100 mM KCl, 10 mM sodium cacodylate pH 7.3, 18 °C.

In experiment [10] the test system is KRAS (DNA, G4) GGGCGGTGTGGGAAGAGGGAAGAGGGGGAGG
Description: thiazole orange displacement (G4-FID). The note with it: 100 mM KCl, 10 mM sodium cacodylate pH 7.3, 18 °C.

The test system of experiment [11] is BCL2 (DNA, G4) AGGGGCGGGCGCGGGAGGAAGGGGGCGGGAGCGGGGC
Description: thiazole orange displacement (G4-FID). The note with it: 100 mM KCl; 10 mM sodium cacodylate pH 7.3, 18 °C; thiazole orange displaced; from DC50, assumed TO Kb 2.5 × 10^6.

Experiment [12] has as its system VEGF (VEGFA) (DNA, G4) GGGGCGGGCCGGGGGCGGGG
Kind of experiment: thiazole orange displacement (G4-FID). The settings on record: 100 mM KCl; 10 mM sodium cacodylate pH 7.3, 18 °C; thiazole orange displaced; from DC50, assumed TO Kb 2.5 × 10^6.

For experiment [13], the system named is KRAS (DNA, G4) GGGCGGTGTGGGAAGAGGGAAGAGGGGGAGG
Kind of experiment: thiazole orange displacement (G4-FID). The note with it: 100 mM KCl; 10 mM sodium cacodylate pH 7.3, 18 °C; thiazole orange displaced; from DC50, assumed TO Kb 2.5 × 10^6.

Experiment [14] has as its system WNT1 (DNA, G4) GGGGGCCACCGGGCAGGGGGCGGGGG
Description: thiazole orange displacement (G4-FID). The note with it: 100 mM KCl; 10 mM sodium cacodylate pH 7.3, 18 °C; thiazole orange displaced; from DC50, assumed TO Kb 2.5 × 10^6.

The subject of experiment [15] is c-KIT (DNA, G4) GGGAGGGCGCTGGGAGGAGGG
Description: thiazole orange displacement (G4-FID). The note with it: 100 mM KCl, 10 mM sodium cacodylate pH 7.3, 18 °C.

Experiment [16] relates to c-MYC (DNA, G4) GGGGAGGGTGGGGAGGGTGGGGAAGG
Kind of experiment: UV melting at 295 nm. The note with it: 140 mM NaCl, 0.5 mM KCl; 20 mM Tris-HCl pH 7.3; 2 equivalents of compound, ~3 µM DNA.

Experiment [17] concerns DNA hairpin (DNA, hairpin) CAATCGGATCGAATTCGATCCGATTG
Kind of experiment: thiazole orange displacement (G4-FID). The note with it: 100 mM KCl, 10 mM sodium cacodylate pH 7.3, 18 °C.

Setting [18] is: 1 µM thiazole orange displaced, 0.5 µM DNA.
The mark [19] stands for this setting: thiazole orange displaced, highest concentration 10 µM.
Setting [20] is: thiazole orange displaced, above highest stated concentration (10 µM).

Consider `CC1=CC(=O)C(C(C)C)=CC1=O`, for which the DC50 in experiment [1] was found to be 3970 ± 250 nM; in [3] (setting [18]) it was 1290 ± 190 nM; in [5] (setting [18]), 1220 ± 100 nM; in experiment [6] (setting [18]), 2150 ± 170 nM; in experiment [9] (setting [18]), 2330 ± 330 nM; in experiment [10] (setting [18]), 2300 ± 330 nM. For the same molecule, the DC50 in [15] (setting [18]) came out at 2170 ± 310 nM. Moreover, the Kb was 0.63 ± 0.04 × 10^6 M^-1 in experiment [2]; 1.68 ± 0.13 × 10^6 M^-1 in experiment [7]; 1.61 ± 0.23 × 10^6 M^-1 in experiment [8]; 2.87 ± 0.41 × 10^6 M^-1 in [11]; 1.50 ± 0.21 × 10^6 M^-1 in experiment [12]; 1.52 ± 0.22 × 10^6 M^-1 in [13]. The Kb in experiment [14] was 2.71 ± 0.39 × 10^6 M^-1. Moreover, the binding result in experiment [4] (Kb printed as 0, up to 10 µM) is listed as “no”.

Take `COc1cc(/C=C/C(=O)CC(=O)/C=C/c2ccc(O)c(OC)c2)ccc1O`: the DC50 in experiment [1] is 9620 ± 700 nM; in [3] (setting [19]) it was > 10000 nM; in experiment [5] (setting [19]), > 10000 nM; in experiment [6] (setting [19]), > 10000 nM; in experiment [9] (setting [19]), > 10000 nM; in experiment [10] (setting [19]) it was > 10000 nM. For the same molecule, in [15] (setting [19]), the DC50 is > 10000 nM. For the same molecule, the Kb in [2] was 0.26 ± 0.02 × 10^6 M^-1.

Consider `C[n+]1cc2c3c(ccc2c2ccc4cc5c(cc4c21)OCO5)OCO3`, for which, in [16], the “increase in Tm” value was determined as 3.5 ± 0.3 °C. The DC50 in experiment [1] came out at 320 ± 20 nM; in [3] (setting [18]), 1240 ± 170 nM; in experiment [5] (setting [18]) it was 850 ± 120 nM; in experiment [6] (setting [18]), 8420 ± 590 nM; in experiment [17] (setting [18]), 3080 ± 400 nM; in [9] (setting [18]) it was 4070 ± 570 nM. Further, the results for the DC50 in experiment [10] (setting [18]) and in [15] (setting [18]) were 3760 ± 530 nM and 1070 ± 150 nM, respectively. The Kb was 7.76 ± 0.53 × 10^6 M^-1 in [2]; 1.30 ± 0.17 × 10^6 M^-1 in experiment [4]; 0.43 ± 0.03 × 10^6 M^-1 in experiment [7]; 3.28 ± 0.47 × 10^6 M^-1 in experiment [8]; 4.12 ± 0.59 × 10^6 M^-1 in experiment [11]; 0.86 ± 0.12 × 10^6 M^-1 in [12]. Further, the Kb was 0.93 ± 0.13 × 10^6 M^-1 in experiment [13] and 2.83 ± 0.40 × 10^6 M^-1 in [14].

For the molecule `O=C(O[C@@H]1Cc2c(O)cc(O)cc2O[C@@H]1c1cc(O)c(O)c(O)c1)c1cc(O)c(O)c(O)c1`, the DC50 was determined as 850 ± 60 nM in [1]; 1270 ± 180 nM in experiment [3] (setting [18]); 960 ± 140 nM in [5] (setting [18]); 2000 ± 150 nM in experiment [6] (setting [18]); 2000 ± 280 nM in experiment [9] (setting [18]); 2160 ± 310 nM in [10] (setting [18]). In experiment [15] (setting [18]), this molecule had a DC50 of 2430 ± 350 nM. Moreover, the Kb is recorded as 2.94 ± 0.20 × 10^6 M^-1 in [2]; 1.81 ± 0.14 × 10^6 M^-1 in [7]; 1.44 ± 0.21 × 10^6 M^-1 in [8]; 3.65 ± 0.52 × 10^6 M^-1 in experiment [11]; 1.75 ± 0.25 × 10^6 M^-1 in [12]; 1.62 ± 0.23 × 10^6 M^-1 in experiment [13]. In addition, the Kb in experiment [14] is reported as 2.75 ± 0.39 × 10^6 M^-1.

For the molecule `O=c1c(O)c(-c2ccc(O)c(O)c2)oc2cc(O)cc(O)c12`, the “increase in Tm” value in experiment [16] turned out to be 3.0 ± 0.3 °C. For the same molecule, the DC50 worked out at 470 ± 30 nM in experiment [1]; 1690 ± 240 nM in experiment [3] (setting [18]); 630 ± 90 nM in experiment [5] (setting [18]); 490 ± 40 nM in [6] (setting [18]); 105260 ± 11080 nM in experiment [17] (setting [20]); 1130 ± 160 nM in experiment [9] (setting [18]). For the same molecule, the figures for the DC50 in experiment [10] (setting [18]) and in [15] (setting [18]) were 2030 ± 300 nM and 920 ± 130 nM, respectively. The Kb in experiment [2] is given as 5.33 ± 0.36 × 10^6 M^-1; in experiment [4], 0.038 ± 0.004 × 10^6 M^-1; in [7], 7.43 ± 0.55 × 10^6 M^-1; in experiment [8] it was 3.80 ± 0.54 × 10^6 M^-1; in [11] it was 5.56 ± 0.79 × 10^6 M^-1; in experiment [12], 3.10 ± 0.44 × 10^6 M^-1. The figures for the Kb in [13] and in experiment [14] were 1.72 ± 0.25 × 10^6 M^-1 and 2.07 ± 0.30 × 10^6 M^-1, respectively.

On to `O=c1c(O)c(-c2ccc(O)cc2)oc2cc(O)cc(O)c12`, for which the DC50 in experiment [1] is 2160 ± 150 nM; in experiment [3] (setting [18]), 1160 ± 160 nM; in [5] (setting [18]), 2000 ± 280 nM; in [6] (setting [18]) it was 2000 ± 150 nM; in experiment [17] (setting [20]), 114290 ± 6530 nM; in experiment [9] (setting [18]), 1670 ± 240 nM. In addition, the DC50 in experiment [10] (setting [18]) came out at 2150 ± 310 nM; in [15] (setting [18]), 2150 ± 300 nM. Also, the Kb is 1.16 ± 0.08 × 10^6 M^-1 in experiment [2]; 0.035 ± 0.002 × 10^6 M^-1 in experiment [4]; 1.81 ± 0.14 × 10^6 M^-1 in experiment [7]; 1.63 ± 0.23 × 10^6 M^-1 in experiment [8]; 1.75 ± 0.25 × 10^6 M^-1 in [11]; 2.09 ± 0.30 × 10^6 M^-1 in [12]. Also, the figures for the Kb in experiment [13] and in experiment [14] were 1.63 ± 0.23 × 10^6 M^-1 and 3.03 ± 0.43 × 10^6 M^-1, respectively.
